According to patent US20070027138A1 (priority 2000, published 2007):
pIC50: −log10 of the molar value. Where a name gives a salt, the structure may show the parent alone.

Tested on: not given
Test: not given
Details: not given

melting point [°C] | SMILES
251 to 255 | COc1ccc2c3c1O[C@H]1C[C@@H](O)C=C[C@@]31CCN(C)C2=O
132 to 134 | COc1ccc2c3c1O[C@H]1C[C@@H](O)C=C[C@@]31CCN1OC(OC(C)=O)C[C@@H]21 (some centres unmarked)
137 to 139 | COc1ccc2c3c1O[C@H]1C[C@@H](O)C=C[C@@]31CCN1OC=C(C#N)[C@H]21
129 to 134 | COc1ccc2c3c1O[C@H]1C[C@@H](O)C=C[C@@]31CCN(CCCCCN1C(=O)c3cccc4cccc(c34)C1=O)C2 (as salt: fumarate)

Target: acetylcholinesterase (AChE), human recombinant (Homo sapiens, UniProt P22303)
Sequence (P22303 32-614): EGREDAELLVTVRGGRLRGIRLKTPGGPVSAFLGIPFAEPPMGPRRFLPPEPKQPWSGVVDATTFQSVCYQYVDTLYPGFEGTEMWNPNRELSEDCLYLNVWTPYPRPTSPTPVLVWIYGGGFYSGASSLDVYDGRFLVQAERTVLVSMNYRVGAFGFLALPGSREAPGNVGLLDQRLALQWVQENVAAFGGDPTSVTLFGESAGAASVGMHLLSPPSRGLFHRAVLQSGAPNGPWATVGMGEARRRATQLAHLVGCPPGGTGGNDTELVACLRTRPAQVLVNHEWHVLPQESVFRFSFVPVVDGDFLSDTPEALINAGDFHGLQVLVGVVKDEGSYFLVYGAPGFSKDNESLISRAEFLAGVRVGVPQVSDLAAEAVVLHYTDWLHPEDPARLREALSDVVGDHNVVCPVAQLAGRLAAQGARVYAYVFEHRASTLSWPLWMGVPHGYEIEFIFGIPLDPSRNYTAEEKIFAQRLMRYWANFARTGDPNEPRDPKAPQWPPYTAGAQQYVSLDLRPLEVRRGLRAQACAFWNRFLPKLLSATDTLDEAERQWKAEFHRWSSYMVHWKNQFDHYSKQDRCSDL
Test: biochemical
Assay type: biochemical
Details: not given

SMILES | pIC50
COc1ccc2c3c1OC1CC(O)C=CC31CCN(CCCCN1C(=O)c3ccccc3S1(=O)=O)C2 (centres unmarked) [SPH-1369] | 7.66

Same assay, conditions: human recombinant enzyme (hr); pre-incubation of the enzyme with inhibitor (mE); read-out: IC50 (AChE, mE, hr)

SMILES | pIC50
COc1ccc2c3c1OC1CC(O)C=CC31CC[N+](C)(CC1CC1)C2 (single isomer, unassigned; (-)) [SPH-1146, (−) Cyclopropylmethylgalanthaminium bromide] | 5.92
CCOC(=O)CCN1CCC23C=C[C@H](O)CC2Oc2c(OC)cc(Br)c(c23)C1 (stereo partly drawn) [SPH-1162, 3-((6R)-1-Bromo-6-hydroxy-3-methoxy-5,6,9,10-tetrahydro-4aH-[1]benzofuro[3a,3,2-ef][2]benzazepin-11(12H)-yl)propanoic acid ethyl ester] | 3.70
COc1cc(N(C)C)c2c3c1O[C@H]1CC(O)C=CC31CCN(C)C2 (some centres unmarked) [SPH-1163] | 3.70
C=CCN1CCC23C=CC(O)CC2Oc2c(OC)cc(C)c(c23)C1 (centres unmarked) [SPH-1199] | 3.70
COc1cc(C)c2c3c1OC1CC(O)C=CC31CCN(C)C2 (centres unmarked) [SPH-1200] | 3.70
COc1cc(C)c2c3c1OC1C[C@@H](O)C=CC31CCN(CCN1CCOCC1)C2 (some centres unmarked) [SPH-1202] | 3.70
COc1cc(C)c2c3c1OC1CC(O)C=CC31CCN(C)C2 (centres unmarked) [SPH-1204] | 3.70
COc1cc(Br)c2c3c1OC1C[C@@H](O)C=CC31CCN(C(=O)NC(C)C)C2 (stereo partly drawn) [SPH-1208, (6R)-1-Bromo-6-hydroxy-N^11-isopropyl-3-methoxy-5,6,9,10-tetrahydro-4aH-[1]benzofuro[3a,3,2-ef][2]benzazepine-11(12H)-carboxylic acid amide] | 3.70
COc1ccc2c3c1OC1C[C@@H](O)C=CC31CCN(c1nc(Oc3ccccc3)nc(Oc3ccccc3)n1)C2 (stereo partly drawn) [SPH-1228, (6R)-11-(4,6-Diphenoxy-1,3,5-triazine-2-yl)-3-methoxy-5,6,9,10,11,12-hexahydro-4aH-[1]benzofuro[3a,3,2-ef][2]benzazepin-6-ol] | 3.70
COc1ccc2c3c1OC1C[C@@H](O)C=CC31CCN(c1nc(OCCN)nc(OCCN)n1)C2 (stereo partly drawn) [SPH-1233, (6R)-11-(4,6-Bis-(2aminoethoxy)-1,3,5-triazine-2-yl)-3-methoxy-5,6,9,10,11,12-hexahydro-4aH-[1]benzofuro[3a,3,2-ef][2]benzazepin-6-ol] | 3.70
COc1ccc2c3c1OC1CC(O)C=CC31CN(C)CC2 (centres unmarked) [SPH-1263, (4aα,8aα)-4a,5,9,10,11-Hexahydro-3-methoxy-10-methyl-6H-benzofuro[3a,3,2-ef]-[3]benzazepin-6-ol] | 3.70
COc1ccc2c3c1OC1C[C@@H](O)C=CC31CCN(C(=O)Nc1ccccc1C(F)(F)F)C2 (some centres unmarked) [SPH-1266] | 4.52
COc1ccc2c3c1OC1CC(O)C=CC31CCN(CCC(=O)O)C2 (centres unmarked) [SPH-1276] | 4.38
COC(=O)C(=CN1CCC23C=CC(O)CC2Oc2c(OC)ccc(c23)C1)C(=O)OC (centres unmarked) [SPH-1278] | 4.00
COc1cc(C)c2c3c1OC1CC(O)C=CC31CCN(CCCN1CCCCC1)C2 (centres unmarked) [SPH-1298] | 3.70
COc1ccc2c3c1OC1CC(O)C=CC31CCCC2N (centres unmarked) [SPH-1309] | 3.70
COc1ccc2c3c1OC1CC(O)C=CC31CCN(CCN)C2 (centres unmarked) [SPH-1311] | 5.89
C=CCCC(=O)N1CCC23C=CC(O)CC2Oc2c(OC)ccc(c23)C1 (centres unmarked) [SPH-1326] | 5.08
COC(=O)C1=CON2CCC34C=CC(O)CC3Oc3c(OC)ccc(c34)C12 (centres unmarked) [SPH-1332] | 3.70

Same assay, conditions: last section of the table, own sub-head (r307); read-out: IC50 AChE

SMILES | pIC50
C=C(C)C[N+]1(C)CC[C@@]23C=C[C@H](O)C[C@@H]2Oc2c(OC)ccc(c23)C1 (some centres unmarked) [SPH-1193] | 5.82

Same assay, conditions: read-out: IC50 (AChE, mE, hr); human recombinant enzyme (hr); pre-incubation of the enzyme with inhibitor (mE)

SMILES | pIC50
COc1cc(Br)c2c3c1OC1C[C@@H](O)C=CC31CCN(CCC#N)C2 (stereo in doubt) [SPH-1210, 3-((6R)-1-Bromo-6-hydroxy-3-methoxy-5,6,9,10-tetrahydro-4aH-[I]benzofuro[3a,3,2-ef][2]benzazepine-11(12H)-yl)propanenitrile] | 3.70
